IC50 data for 38 molecules are collected here from patent US7820670B2 (Alcon Research, Ltd., priority 2006, dated 2010).

Counter-ions that a name gives are not always drawn. Like-named read-outs stand apart in the source and are kept apart here.

One experiment deals with T1, ROCK 2 (Homo sapiens, UniProt O75116).
T1 construct: purchased Molecular Devices, Sunnyvale, Calif
The experiment is described as follows: Rho kinase assay (IMAP ROCK-II kit, fluorescence polarization). The format is biochemical. For orientation: In fluorescence polarisation assays a small probe gives low polarisation when free and higher when bound to something large.

A further experiment deals with ROCK 1 (Homo sapiens, UniProt Q13464). The experiment is described as follows: Rho kinase assay (IMAP ROCK-I kit, fluorescence polarization).
Chain of ROCK 1 (Q13464 whole entry, species assumed): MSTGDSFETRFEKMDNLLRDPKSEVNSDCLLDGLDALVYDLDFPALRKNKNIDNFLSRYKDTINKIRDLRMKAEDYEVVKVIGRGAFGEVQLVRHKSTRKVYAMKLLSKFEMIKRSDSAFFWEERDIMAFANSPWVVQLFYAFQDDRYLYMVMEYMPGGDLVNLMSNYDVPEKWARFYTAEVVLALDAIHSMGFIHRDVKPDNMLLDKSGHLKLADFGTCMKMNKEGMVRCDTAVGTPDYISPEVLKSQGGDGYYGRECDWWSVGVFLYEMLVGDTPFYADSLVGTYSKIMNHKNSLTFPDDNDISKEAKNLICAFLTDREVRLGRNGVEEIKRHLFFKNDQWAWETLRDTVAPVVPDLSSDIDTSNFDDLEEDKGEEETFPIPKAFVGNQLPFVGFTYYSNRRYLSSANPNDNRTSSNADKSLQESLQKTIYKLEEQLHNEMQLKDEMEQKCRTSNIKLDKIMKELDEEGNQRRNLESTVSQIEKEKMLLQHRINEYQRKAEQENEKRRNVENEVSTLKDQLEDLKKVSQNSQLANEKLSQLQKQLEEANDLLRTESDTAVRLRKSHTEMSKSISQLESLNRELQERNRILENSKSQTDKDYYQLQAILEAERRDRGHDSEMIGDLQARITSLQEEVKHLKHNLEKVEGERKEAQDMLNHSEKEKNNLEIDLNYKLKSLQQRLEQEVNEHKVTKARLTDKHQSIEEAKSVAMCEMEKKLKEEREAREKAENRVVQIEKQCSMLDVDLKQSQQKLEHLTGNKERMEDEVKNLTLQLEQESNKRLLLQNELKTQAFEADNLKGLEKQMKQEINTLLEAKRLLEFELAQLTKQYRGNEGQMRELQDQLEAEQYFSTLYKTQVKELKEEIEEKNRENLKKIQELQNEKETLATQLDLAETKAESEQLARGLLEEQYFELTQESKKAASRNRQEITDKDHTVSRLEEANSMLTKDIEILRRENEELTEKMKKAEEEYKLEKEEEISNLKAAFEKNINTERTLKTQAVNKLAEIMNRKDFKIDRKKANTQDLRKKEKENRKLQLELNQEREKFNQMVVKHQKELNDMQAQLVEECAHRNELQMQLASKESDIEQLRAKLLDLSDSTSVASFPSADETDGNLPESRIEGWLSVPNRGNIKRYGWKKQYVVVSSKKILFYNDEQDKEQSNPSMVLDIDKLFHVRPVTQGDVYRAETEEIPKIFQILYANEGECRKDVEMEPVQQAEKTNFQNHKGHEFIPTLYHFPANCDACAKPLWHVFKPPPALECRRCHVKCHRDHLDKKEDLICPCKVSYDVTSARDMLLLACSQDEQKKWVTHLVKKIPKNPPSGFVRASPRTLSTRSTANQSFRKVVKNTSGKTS
The mark [1] stands for this setting: substrate 200 nM, ATP 10 μM, 60 min at 23° C.

T1 sequence (O75116 whole entry, species assumed): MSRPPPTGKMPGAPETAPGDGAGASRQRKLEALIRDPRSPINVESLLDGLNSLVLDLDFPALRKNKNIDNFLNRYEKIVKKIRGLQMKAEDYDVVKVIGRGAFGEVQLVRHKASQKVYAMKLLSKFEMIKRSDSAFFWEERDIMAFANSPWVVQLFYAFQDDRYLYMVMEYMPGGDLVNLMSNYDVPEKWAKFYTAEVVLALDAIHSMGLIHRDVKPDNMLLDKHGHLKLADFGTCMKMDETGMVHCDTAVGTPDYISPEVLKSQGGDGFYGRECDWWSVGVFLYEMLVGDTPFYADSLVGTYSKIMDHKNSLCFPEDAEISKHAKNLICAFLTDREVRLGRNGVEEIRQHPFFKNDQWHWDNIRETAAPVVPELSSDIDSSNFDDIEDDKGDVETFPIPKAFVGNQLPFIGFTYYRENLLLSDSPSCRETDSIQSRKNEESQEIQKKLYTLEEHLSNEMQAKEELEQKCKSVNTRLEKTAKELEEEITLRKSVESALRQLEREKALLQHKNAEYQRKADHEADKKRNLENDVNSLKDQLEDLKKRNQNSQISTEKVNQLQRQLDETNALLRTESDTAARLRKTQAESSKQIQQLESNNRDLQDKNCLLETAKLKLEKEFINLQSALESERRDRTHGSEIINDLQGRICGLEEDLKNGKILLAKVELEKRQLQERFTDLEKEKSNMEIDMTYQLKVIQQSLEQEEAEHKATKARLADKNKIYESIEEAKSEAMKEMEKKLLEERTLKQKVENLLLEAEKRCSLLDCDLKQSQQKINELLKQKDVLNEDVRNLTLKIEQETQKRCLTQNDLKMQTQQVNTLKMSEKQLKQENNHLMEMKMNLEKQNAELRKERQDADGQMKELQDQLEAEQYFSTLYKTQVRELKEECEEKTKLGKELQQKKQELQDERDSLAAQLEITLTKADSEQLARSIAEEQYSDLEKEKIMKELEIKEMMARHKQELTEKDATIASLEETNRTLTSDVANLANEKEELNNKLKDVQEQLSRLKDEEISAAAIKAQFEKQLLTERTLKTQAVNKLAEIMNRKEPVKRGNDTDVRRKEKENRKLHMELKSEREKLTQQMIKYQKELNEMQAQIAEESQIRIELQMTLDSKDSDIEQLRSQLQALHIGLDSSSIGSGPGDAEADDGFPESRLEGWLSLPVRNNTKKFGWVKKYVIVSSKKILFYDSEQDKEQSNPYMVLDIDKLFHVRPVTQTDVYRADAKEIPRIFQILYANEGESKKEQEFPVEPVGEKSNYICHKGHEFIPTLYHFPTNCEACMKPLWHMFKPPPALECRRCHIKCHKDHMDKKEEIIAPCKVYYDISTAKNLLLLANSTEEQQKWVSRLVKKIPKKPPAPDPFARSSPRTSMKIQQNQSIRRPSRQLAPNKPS
Experimental for ROCK 1: (§1) The rho kinase assays were performed using a Biomek 2000 Robotic Workstation (Beckman Instruments, Palo Alto, Calif.) in a 96-well plate format. The assay was performed utilizing the IMAP ROCK-I and ROCK-II kits (Molecular Devices, Sunnyvale, Calif.) as follows. […] The substrate, enzyme, and ATP dilutions were made with the reaction buffer provided by the vendor. Test compounds were diluted in 10:10 DMSO-ethanol (vol/vol). For the actual assay, the various components were added into black, clear bottom, 96-well plates (Costar, Corning, N.Y.) in a final volume of 20μl per well. After the enzyme reaction (60 min at 23° C.), 60 μl of the binding solution was added per well and incubated for an additional 30 minutes in the dark at 23° C. Fluorescence polarization of the reaction mixtures was then measured on the Analyst™ HT instrument (Molecular Devices, Sunnyvale, Calif.).
Experimental for ROCK 2: as §1

Take `CCCC/C=C/c1cnc2ccc(NCCCN3CCCC3)nn12` [Example 47, (E)-3-(Hex-1-enyl)-N-(3-(pyrrolidin-1-yl)propyl)imidazo[1,2-b]pyridazin-6-amine dihydrochloride]: the values for the IC50 at ROCK 2 and on ROCK 1 were 38 µM and 59 µM, respectively.

Take `CCCC/C=C\c1cnc2ccc(NCCCN3CCOCC3)nn12` [Example 27, (Z)-3-(Hex-1-enyl)-N-(3-morpholinopropyl)imidazo[1,2-b]pyridazin-6-amine hydrochloride]: the values for the IC50 on ROCK 2 (setting [1]) and at ROCK 1 were 88 µM and 43 µM, respectively.

Turning to `COCc1cnc2ccc(NCc3ccccn3)nn12` [Example 34, hydrochloride], the half-inhibitory concentration (IC50) on ROCK 2 (setting [1]) and at ROCK 1 was more than 100 µM in each case.

With `CCCC/C=C/c1cnc2ccc(N[C@H]3CC[C@@H](O)CC3)nn12` [Example 50, Syn-(E)-4-(3-(Hex-1-enyl)imidazo[1,2-b]pyridazin-6-ylamino)cyclohexanol hydrochloride], the IC50 on ROCK 2 (setting [1]) stood at 17 µM; at ROCK 1, 6 µM.

`CCCC/C=C/c1cnc2ccc(NCc3ccncc3)nn12` [Example 43, (E)-3-(Hex-1-enyl)-N-(pyridin-4-ylmethyl)imidazo[1,2-b]pyridazin-6-amine]: the IC50 at ROCK 2 (setting [1]) was found to be 11 µM; against ROCK 1, 4.3 µM.

In the case of `C1=C(c2cnc3ccc(NCc4ccccn4)nn23)CCCC1` [Example 21, 3-Cyclohexenyl-N-(pyridin-2-ylmethyl)imidazo[1,2-b]pyridazin-6-amine hydrochloride], the concentration for half-maximal inhibition (IC50) at ROCK 2 (setting [1]) is 200 µM; at ROCK 1, more than 100 µM.

Consider `c1n[nH]cc1-c1cnc2ccc(N3CCCNCC3)nn12` [Example 56, 6-Perhydro-1,4-diazepin-1-yl-3-(1H-pyrazol-4-yl)-imidazo[1,2-b]pyridazine dihydrochloride], for which the figures for the IC50 at ROCK 2 (setting [1]) and against ROCK 1 were 6.7 µM and 18 µM, respectively.

Regarding `CCOCc1cnc2ccc(NCc3ccccn3)nn12` [Example 32, 3-(Ethoxymethyl)-N-(pyridin-2-ylmethyl)imidazo[1,2-b]pyridazin-6-amine hydrochloride], the IC50 against ROCK 2 (setting [1]) and at ROCK 1 was more than 100 µM in each case.

Consider `CCCC/C=C/c1cnc2ccc(NCc3cnc(C)cn3)nn12` [Example 44, (E)-3-(Hex-1-enyl)-N-((5-methylpyrazin-2-yl)methyl)imidazo[1,2-b]pyridazin-6-amine], for which the results for the concentration for half-maximal inhibition (IC50) against ROCK 2 (setting [1]) and against ROCK 1 were 34 µM and 22 µM, respectively.

Turning to `CCCNc1ccc2ncc(-c3cc(C)cs3)n2n1` [Example 4, 3-(4-Methylthiophen-2-yl)-N-propylimidazo[1,2-b]pyridazin-6-amine], the IC50 at ROCK 2 (setting [1]) and against ROCK 1 was more than 100 µM each time.

Take `CCCC/C=C/c1cnc2ccc(NCCCCN(C)C)nn12` [Example 46, (E)-N^1-(3-(Hex-1-enyl)imidazo[1,2-b]pyridazin-6-yl)-N^4,N^4-dimethylbutane-1,4-diamine]: the IC50 on ROCK 2 (setting [1]) was 8.2 µM; against ROCK 1, 5 µM.

Take `Cc1n[nH]c2ccc(-c3cnc4ccc(NC5CCCNC5)nn34)cc12` (stereo not drawn) [Example 53, [3-(3-methyl-1H-indazol-5-yl)-imidazo[1,2-b]pyridazine-6-yl]-piperidin-3-yl-amine trihydrochloride]: the 50% inhibitory concentration (IC50) on ROCK 2 (setting [1]) turned out to be 0.073 µM; at ROCK 1, 0.082 µM.

For `c1cc(-c2cnc3ccc(N4CCCNCC4)nn23)ccn1` [Example 54, 6-(1,4-Diazepan-1-yl)-3-pyridin-4-yl-imidazo [1,2-b]pyridazine hydrochloride], the half-maximal inhibitory concentration (IC50) on ROCK 2 (setting [1]) worked out at 0.33 µM; on ROCK 1 it was 0.93 µM.

Regarding `c1ccc(CNc2ccc3nccn3n2)nc1` [Example 33, N-(Pyridin-2-ylmethyl)imidazo[1,2-b]pyridazin-6-amine hydrochloride], the half-inhibitory concentration (IC50) at ROCK 2 (setting [1]) is 13 µM; at ROCK 1 it was more than 100 µM.

Consider `OCc1cnc2ccc(NCCCN3CCOCC3)nn12` [Example 24, (6-(3-Morpholinopropylamino)imidazo[1,2-b]pyridazin-3-yl)methanol hydrochloride], for which the IC50 on ROCK 2 (setting [1]) and against ROCK 1 was more than 100 µM throughout.

In the case of `CCCC/C=C/c1cnc2ccc(NCCCCO)nn12` [Example 37, (E)-4-(3-(Hex-1-enyl)imidazo[1,2-b]pyridazin-6-ylamino)butan-1-ol hydrochloride], the IC50 at ROCK 2 (setting [1]) was found to be 13 µM; against ROCK 1, 23 µM.

Turning to `CCCCCCc1cnc2ccc(NCc3ccccn3)nn12` [Example 29, 3-Hexyl-N-(pyridin-2-ylmethyl)imidazo[1,2-b]pyridazin-6-amine hydrochloride], the results for the IC50 against ROCK 2 (setting [1]) and against ROCK 1 were 17 µM and 42 µM, respectively.

In the case of `CCCCCCc1cnc2ccc(NCCCN3CCOCC3)nn12` [Example 17, 3-Hexyl-N-(3-morpholinopropyl)imidazo[1,2-b]pyridazin-6-amine hydrochloride], the results for the IC50 on ROCK 2 (setting [1]) and against ROCK 1 were more than 100 µM and 28 µM, respectively.

In the case of `c1cncc(-c2cnc3ccc(N4CCCNCC4)nn23)c1` [Example 57, 6-Perhydro-1,4-diazepin-1-yl-3-pyridin-3-yl-imidazo[1,2-b]pyridazine trihydrochloride], the IC50 against ROCK 2 (setting [1]) was found to be 23 µM; against ROCK 1, 63 µM.

Take `c1cn2nc(NCCCN3CCOCC3)ccc2n1` [Example 35, N-(3-Morpholinopropyl)imidazo[1,2-b]pyridazin-6-amine hydrochloride]: the IC50 at ROCK 2 (setting [1]) and on ROCK 1 was more than 100 µM in each case.

Take `CCCC/C=C/c1cnc2ccc(NCc3cccnc3)nn12` [Example 45, (E)-3-(Hex-1-enyl)-N-(pyridin-3-ylmethyl)imidazo[1,2-b]pyridazin-6-amine]: the IC50 against ROCK 2 (setting [1]) was 4.7 µM; on ROCK 1 it was 2.3 µM.

With `COCc1cnc2ccc(NCCCN3CCOCC3)nn12` [Example 30, 3-(Methoxymethyl)-N-(3-morpholinopropyl)imidazo[1,2-b]pyridazin-6-amine hydrochloride], the 50% inhibitory concentration (IC50) at ROCK 2 (setting [1]) and against ROCK 1 was more than 100 µM in each case.

For the molecule `CCC/C=C/c1cnc2ccc(NCCCN3CCOCC3)nn12` [Example 18, (E)-N-(3-Morpholinopropyl)-3-(pent-1-enyl)imidazo[1,2-b]pyridazin-6-amine hydrochloride], the IC50 against ROCK 2 (setting [1]) worked out at 88 µM; at ROCK 1, 43 µM.

With `CCCC/C=C/c1cnc2ccc(NCCN(C)C)nn12` [Example 8, (E)-N^1-(3-(Hex-1-enyl)imidazo[1,2-b]pyridazin-6-yl)-N^2,N^2-dimethylethane-1,2-diamine fumarate], the IC50 against ROCK 2 (setting [1]) stood at 65 µM; against ROCK 1, 58 µM.

With `CCCC/C=C/c1cnc2ccc(NCCCO)nn12` [Example 6, (E)-3-(3-(Hex-1-enyl)imidazo [1,2-b]pyridazin-6-ylamino)propan-1-ol fumarate], the figures for the IC50 against ROCK 2 (setting [1]) and at ROCK 1 were 33 µM and 30 µM, respectively.

For the molecule `CCOCc1cnc2ccc(NCCCN3CCOCC3)nn12` [Example 31, 3-(Ethoxymethyl)-N-(3-morpholinopropyl)imidazo[1,2-b]pyridazin-6-amine hydrocloride], the IC50 against ROCK 2 (setting [1]) and against ROCK 1 was more than 100 µM in each case.

For the molecule `COc1ccccc1-c1cnc2ccc(NCc3ccccn3)nn12` [Example 2, 3-(2-Methoxyphenyl)-N-(pyridin-2-ylmethyl)imidazo[1,2-b]pyridazin-6-amine fumarate], the concentration for half-maximal inhibition (IC50) against ROCK 2 (setting [1]) and at ROCK 1 was more than 100 µM throughout.

In the case of `Cc1cnc2ccc(NCCCN3CCOCC3)nn12` [Example 16, 3-Methyl-N-(3-morpholinopropyl)imidazo[1,2-b]pyridazin-6-amine fumarate], the half-inhibitory concentration (IC50) at ROCK 2 (setting [1]) and against ROCK 1 was more than 100 µM each time.

Turning to `CCCC/C=C/c1cnc2ccc(NC(CC)CO)nn12` (stereo not drawn) [Example 10, (E)-2-(3-(Hex-1-enyl)imidazo[1,2-b]pyridazin-6-ylamino)butan-1-ol], the IC50 was more than 100 µM against ROCK 2 (setting [1]) and 78 µM on ROCK 1.

As for `Cc1cnc2ccc(NCCN(C)C)nn12` [Example 11, N^1,N^1-Dimethyl-N^2-(3-methylimidazo[1,2-b]pyridazin-6-yl)ethane-1,2-diamine], the figures for the 50% inhibitory concentration (IC50) against ROCK 2 (setting [1]) and at ROCK 1 were 79 µM and 36 µM, respectively.

For the molecule `CCCCC/C=C/c1cnc2ccc(NCCCN3CCOCC3)nn12` [Example 22, (E)-3-(Hept-1-enyl)-N-(3-morpholinopropyl)imidazo[1,2-b]pyridazin-6-amine hydrochloride], the concentration for half-maximal inhibition (IC50) at ROCK 2 (setting [1]) was 120 µM; against ROCK 1, 38 µM.

`Cc1cnc2ccc(NCc3ccccn3)nn12` [Example 15, 3-Methyl-N-(pyridin-2-ylmethyl)imidazo[1,2-b]pyridazin-6-amine hydrochloride]: the half-inhibitory concentration (IC50) against ROCK 2 (setting [1]) came to 16 µM; against ROCK 1, 67 µM.

On to `CCCC/C=C/c1cnc2ccc(N[C@H]3CC[C@H](O)CC3)nn12` [Example 49, Anti-(E)-4-(3-(Hex-1-enyl)imidazo[1,2-b]pyridazin-6-ylamino)cyclohexanol], for which the 50% inhibitory concentration (IC50) against ROCK 2 (setting [1]) was 29 µM; at ROCK 1 it was 13 µM.

For the molecule `Cc1n[nH]c2ccc(-c3cnc4ccc(N5CCNCC5)nn34)cc12` [Example 52, 3-(3-Methyl-1H-indazol-5-yl)-6-piperazin-1-yl-imidazo[1,2-b]pyridazine trihydrochloride], the IC50 came to 0.014 µM against ROCK 2 (setting [1]) and 0.027 µM at ROCK 1.

`CCC/C=C/c1cnc2ccc(NCc3ccccn3)nn12` [Example 19, (E)-3-(Pent-1-enyl)-N-(pyridin-2-ylmethyl)imidazo[1,2-b]pyridazin-6-amine hydrochloride]: the concentration for half-maximal inhibition (IC50) was 2 µM against ROCK 2 (setting [1]) and 2.1 µM against ROCK 1.

In the case of `c1cc2[nH]ncc2cc1-c1cnc2ccc(N3CCNCC3)nn12` [Example 51, 3-(1H-Indazol-5-yl)-6-piperazin-1-yl-imidazo[1,2-b]pyridazine dihydrochloride], the half-maximal inhibitory concentration (IC50) against ROCK 2 (setting [1]) worked out at 0.0035 µM; against ROCK 1, 0.12 µM.

For the molecule `CCCC/C=C/c1cnc2ccc(N3CCOCC3)nn12` [Example 5, (E)-4-(3-(Hex-1-enyl)imidazo[1,2-b]pyridazin-6-yl)morpholine fumarate], the IC50 on ROCK 2 (setting [1]) was more than 100 µM; on ROCK 1, 9.7 µM.

Consider `Clc1cnc2ccc(NCCCN3CCOCC3)nn12` [Example 14, 3-Chloro-N-(3-morpholinopropyl)imidazo[1,2-b]pyridazin-6-amine hydrochloride], for which the IC50 against ROCK 1 came out at 37 µM.

By IC50 is commonly meant the concentration at which inhibition is half-maximal. Higher therefore signals weaker potency in that assay.
